In brackets after ≈: the same amount, converted by molar mass.
Assays:
[1] = intravenous administration to the mouse, adverse effects; format: in vivo; conditions: 500 mg/kg intravenously
Source text: (§1) The compounds of the invention are essentially non-toxic at therapeutically useful doses.

[2] = intravenous administration to the rat, adverse effects; format: in vivo; conditions: 500 mg/kg intravenously
Source text: as §1

E coli 1852E = conditions: 18 h
Experimental: (§2) For example the antibacterial activity of the compounds of the invention was determined using a standard microtiter broth serial dilution test. In this test the broth was incubated with approximately 10^5 colony forming units of the test organism and incubated at 35° for 18 hours in the presence of test compound.

S aureus 663E = experiment: standard microtiter broth serial dilution test, S aureus 663E; conditions: 18 h
Experimental: as §2

E cloacae 3647 = experiment: standard microtiter broth serial dilution test, E cloacae 3647; conditions: 18 h
Experimental: as §2

S faecalis 850E = experiment: standard microtiter broth serial dilution test, S faecalis 850E; conditions: 18 h
Experimental: as §2

B fragilis 2017E = experiment: standard microtiter broth serial dilution test, B fragilis 2017E; conditions: 18 h
Experimental: as §2

P aeruginosa 1911E = experiment: standard microtiter broth serial dilution test, P aeruginosa 1911E; conditions: 18 h
Experimental: as §2

With `C[C@@H](O)[C@H]1C(=O)N2C(C(=O)O)=C3[C@H](CCC[C@@H]3N(C)C=N)[C@H]12` [Example 1, (4S,8S,9R,10S,12R)-4-(N-methylformamidino)-10-(1-hydroxyethyl)-11-oxo-1-azatricyclo[7.2.0.0^3.^8]undec-2-ene-2-carboxylic acid] the adverse effects [1] was “no adverse effects were observed”, the adverse effects [2] was “no adverse effects were observed” and the MIC (E coli 1852E) was 0.5 µg/mL (≈ 1.63 µM). It also gave an MIC (S aureus 663E) of 0.1 µg/mL (≈ 0.325 µM), an MIC (E cloacae 3647) of 1 µg/mL (≈ 3.25 µM) and an MIC (S faecalis 850E) of 1 µg/mL (≈ 3.25 µM). The MIC (B fragilis 2017E) was 0.2 µg/mL (≈ 0.651 µM) and the MIC (P aeruginosa 1911E) was 8 µg/mL (≈ 26 µM).
With `CN=CN[C@H]1CCC[C@H]2C1=C(C(=O)O)N1C(=O)[C@H]([C@@H](C)O)[C@@H]21` [Example 2, (4 S,8S,9R,10S,12R)-4-[(3'-methyl)formamidino)-10-(1-hydroxyethyl)-11-oxo-1-azatricyclo[7.2.0.0^3.^8]undec-2-ene-2-carboxylic acid] the MIC (E coli 1852E) was 2 µg/mL (≈ 6.51 µM), the MIC (S aureus 663E) was 0.1 µg/mL (≈ 0.325 µM) and the MIC (E cloacae 3647) was 4 µg/mL (≈ 13 µM). It also gave an MIC (S faecalis 850E) of 16 µg/mL (≈ 52.1 µM), an MIC (B fragilis 2017E) of 0.5 µg/mL (≈ 1.63 µM) and an MIC (P aeruginosa 1911E) of 16 µg/mL (≈ 52.1 µM).
